For data set [1], the system named is Bacterial cells expressing antisense nucleic acid complementary to rplL and rplJ (50S ribosomal subunit proteins). Nature of the data set: microbe, parasite or virus in culture. In kind it is cell-based, E. coli. The note with it: for IC50: Escherichia coli. The method, then: Two-fold dilution series of antibiotics with a known mechanism of action are generated in the culture media selected for further assay development that has been supplemented with the antibiotic used to maintain the construct. A panel of test antibiotics known to act on different pathways is tested side by side with three to four wells being used to evaluate the effect of a test antibiotic on cell growth at each concentration. Equal volumes of test antibiotic and cells are added to the wells of a 384 well microtiter plate and mixed. Cells are prepared as described above using the media selected for assay development supplemented with the antibiotic required to maintain the antisense construct and are diluted 1:100 in identical media immediately prior to addition to the microtiter plate wells. For a control, cells are also added to several wells that contain the solvent used to dissolve the antibiotics but no antibiotic. Cell growth is monitored continuously by incubation at 37° C. in a microtiter plate reader monitoring the OD600 of the wells over an 18-hour period. […] A plot of percent inhibition against log[antibiotic concentration] allows extrapolation of an IC50 value for each antibiotic.
The culture media selected for use in the assay is supplemented with inducer at concentrations shown to inhibit cell growth by 50% and 80% as described above and the antibiotic used to maintain the construct. Two fold dilution series of the panel of test antibiotics used above are generated in each of these media. Several antibiotics are tested side by side with three to four wells being used to evaluate the effects of an antibiotic on cell growth at each concentration, in each media. Equal volumes of test antibiotic and cells are added to the wells of a 384 well microtiter plate and mixed. Cells are prepared as described above using the media selected for use in the assay supplemented with the antibiotic required to maintain the antisense construct. […] Immediately prior to addition to the microtiter plate wells, the cultures are adjusted to an appropriate OD600 (typically 0.002) by dilution into warm (37° C.) sterile media supplemented with identical concentrations of the inducer and antibiotic used to maintain the antisense construct. For a control, cells are also added to several wells that contain solvent used to dissolve test antibiotics but which contain no antibiotic. Cell growth is monitored continuously by incubation at 37° C. in a microtiter plate reader monitoring the OD600 of the wells over an 18-hour period. […] A plot of percent inhibition against log[antibiotic concentration] allows extrapolation of an IC50 value for each antibiotic.
Antibiotics of various chemical classes and modes of action were purchased from Sigma Chemicals (St. Louis, Mo.). Stock solutions were prepared by dissolving each antibiotic in an appropriate aqueous solution based on information provided by the manufacturer. The final working solution of each antibiotic contained no more than 0.2% (w/v) of any organic solvent. To determine their potency against a bacterial strain engineered for expression of an antisense complementary to a proliferation-required gene encoding 50S ribosomal protein, each antibiotic was serially diluted two or three fold in growth medium supplemented with the appropriate antibiotic for maintenance of the anti-sense construct. At least ten dilutions were prepared for each antibiotic. 25 μL aliquots of each dilution were transferred to discrete wells of a 384-well microplate (the assay plate) using a multi-channel pipette. Quadruplicate wells were used for each dilution of an antibiotic under each treatment condition (plus and minus inducer). Each assay plate contained twenty wells for cell growth controls (growth media replacing antibiotic), ten wells for each treatment (plus and minus inducer, in this example IPTG).

Data set [2] has as its system E. coli transformed with IPTG-inducible antisense clones (AS-rplW, AS-rplLrplJ, AS-elaD, AS-visC, AS-yohH, AS-atpB/E). Nature of the data set: Cell-based assay: antibiotic sensitivity of E. coli antisense clones pretreated with IPTG (Example 9). The note with it: cells/clone expressing antisense to rplL and rplJ (L7/L12, L10), IPTG induced. The source says:
The effectiveness of the above cell-based assay was validated using constructs expressing antisense RNA to the proliferation required E. coli genes rplL, rplJ, and rplW encoding ribosomal proteins L7/L12, L10 and L23 respectively. These proteins are part of the protein synthesis apparatus of the cell and as such are required for proliferation. These constructs were used to test the effect of antisense expression on cell sensitivity to antibiotics known to bind to the ribosome and thereby inhibit protein synthesis. Constructs expressing antisense RNA to several other genes (elaD, visC, yohH, and atpE/B), the products of which are not involved in protein synthesis were used for comparison.
First, pLEX5BA (Krause et al., J. Mol. Biol. 274: 365 (1997), the disclosure of which is incorporated herein by reference in its entirety) expression vectors containing antisense constructs to either rplW or to elaD were introduced into separate E. coli cell populations. Vector introduction is a technique well known to those of ordinary skill in the art. The expression vectors of this example contain IPTG inducible promoters that drive the expression of the antisense RNA in the presence of the inducer. However, those skilled in the art will appreciate that other inducible promoters may also be used. Suitable expression vectors are also well known in the art. The E. coli antisense clones to genes encoding ribosomal proteins L7/L12, L10 and L23 were used to test the effect of antisense expression on cell sensitivity to the antibiotics known to bind to these proteins. […]
The cell populations were exposed to a range of IPTG concentrations in liquid medium to obtain the growth inhibitory dose curve for each clone (FIG. 1). First, seed cultures were grown to a particular turbidity that is measured by the optical density (OD) of the growth solution. […] The cells were grown for up to 15 hours and the extent of growth was determined by measuring the optical density of the cultures at 600 nm. […]

Data set [3] deals with E. coli. Description: Inhibition of E. coli proliferation after IPTG induction of antisense clones (growth curves, dilution spotting, score). In kind it is cell-based, Escherichia coli. The note with it: IPTG induction (1 mM). On the procedure:
(§1) To study the effects of transcriptional induction in liquid medium, growth curves were carried out by back diluting cultures 1:200 into fresh media with or without 1 mM IPTG and measuring the OD450 every 30 minutes (min). To study the effects of transcriptional induction on solid medium, 10^2, 10^3, 10^4, 10^5, 10^6, 10^7 and 10^8 fold dilutions of overnight cultures were prepared. Aliquots of from 0.5 to 3 μl of these dilutions were spotted on selective agar plates with or without 1 mM IPTG. After overnight incubation, the plates were compared to assess the sensitivity of the clones to IPTG.
Of the numerous clones tested, some clones were identified as containing a sequence that inhibited E. coli growth after IPTG induction. […]
(§2) Molecule No. EcXA190, encoding a portion of the b3052 gene of Escherichia coli, was either transformed directly into Enterobacter cloacae, Salmonella typhimurium and/or Klebsiella pneumoniae or subcloned into an expression vector functional in these species and the subclones transformed into these organisms. […] After growth in liquid culture, cells were plated at various serial dilutions and a score determined by calculating the log difference in growth for INDUCED vs. UNINDUCED antisense RNA expression as determined by the maximum 10 fold dilution at which a colony was observed. […]

The subject of data set [4] is Klebsiella pneumoniae. Description: Growth inhibition by induced E. coli antisense RNA in Klebsiella pneumoniae. In kind it is cell-based. The arrangement: key: +: a positive in Table V below means that at least 10 fold more cells were required to observe a colony on the induced plate than on the non-induced plate; −: If there was no effect of antisense RNA expression in a microorganism, the clone is minus in Table V below. The note with it: antisense RNA expression induced with IPTG, serial dilution plating. The essentials: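 Overnight cultures were diluted 10^2 to 10^8-fold and spotted on selective plates with or without 1 mM IPTG to induce antisense RNA from transformed E. coli sequences. After overnight growth, induced vs uninduced was scored as the log difference in the highest dilution giving colonies. No effect scores 0 (or minus); a positive score means at least 10-fold more cells were needed.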

In data set [5] the test system is Enterobacter cloacae. Description: Growth inhibition by induced E. coli antisense RNA in Enterobacter cloacae. The note with it: antisense RNA expression induced with IPTG, serial dilution plating. The format is cell-based. Also on record: key: +: a positive in Table V below means that at least 10 fold more cells were required to observe a colony on the induced plate than on the non-induced plate; −: If there was no effect of antisense RNA expression in a microorganism, the clone is minus in Table V below. On the procedure: as §1
as §2, with “organisms. Suitable expression vectors are well known in the art.” for “organisms.”

The test system of data set [6] is Salmonella typhimurium. Nature of the data set: Growth inhibition by induced E. coli antisense RNA in Salmonella typhimurium. In kind it is cell-based. The arrangement: key: +: a positive in Table V below means that at least 10 fold more cells were required to observe a colony on the induced plate than on the non-induced plate; −: If there was no effect of antisense RNA expression in a microorganism, the clone is minus in Table V below. The note with it: antisense RNA expression induced with IPTG, serial dilution plating. The method, then: as §1
as §2, with “organisms. Suitable expression vectors are well known in the art.” for “organisms.”

Experimental findings from patent US20020022718A1, “Genes identified as required for proliferation of E. coli” (priority 1999, published 2002) are described below.

In brackets after ≈: the same amount, converted by molar mass. Where two headings read alike, the source gives them in different places.

A word on the IC50: it is the concentration at which inhibition is half-maximal. On to `CCn1cc(C(=O)O)c(=O)c2ccc(C)nc21` [Nalidixic acid], for which the IC50 in data set [1] (read-out: IC50 (+IPTG)) was 6.03 µg/mL (≈ 25.9 µM); in data set [1] (read-out: IC50 (−IPTG)), 6.97 µg/mL (≈ 30 µM). In addition, the “Fold Increase in Sensitivity” value in data set [1] (IC50 −IPTG versus +IPTG (400 μM)) came out at 1. In data set [1] (significant decrease in IC50 in the presence of inducer IPTG), the “Sensitivity Increased?” value was “No”. For the same molecule, the sensitivity to antibiotic entry in data set [2] was “does not show increased sensitivity”.

B1: EcXA161: antisense clone insert to E. coli sbcD (nucleic acid, listed as Escherichia coli)
antisense: GAAACTCAGTGGAATGGGGGAGCCGCAATAGCGAACATGTTCCATGCCGCCAATAATCTGTGCGCGGTGAATATGCCCGAGCGCGATGTAGTCGGCTGGTGGAAAGTTTTGTGCCGGAAACGCGTCCAGCGTGCCAATATAAATGTCACGCACGGCGTCACTTTTACTGGCCCCCACGGTCGTTAAATGTCCCGTGGCGATGATGGGCAGAGGCTGATCGCCGCGCAGTTTGCAGGCATCGGCATAGTGT
Take B1: the “effect of antisense expression on E. coli growth/proliferation” value in data set [3] is recorded as “reduction in cell growth”.

B2: EcXA172: antisense clone insert to E. coli b2345 (nucleic acid, listed as Escherichia coli)
antisense: AAAACTCACCTTTTTTGTTGTTATCCCTCAATTACCACAAGTAAAAGGAGATAAACCGACAATGACCTAGACGTAATTATGTAAAAATACTGATGTTCGTCACTGACTATTTCCGATATTCAGCTGTTGAAAAATCAAAAAACTGGAAAAATAATTTTAAATATCAT
Regarding B2, the “Sensitivity of K. pneumoniae to antisense nucleic acid (growth inhibition, induced vs. uninduced)” value in data set [4] is “−”. Besides, in data set [5], the “Sensitivity of E. cloacae to antisense nucleic acid (growth inhibition, induced vs. uninduced)” value is reported as “−”. In data set [6], the “Sensitivity of S. typhimurium to antisense nucleic acid (growth inhibition, induced vs. uninduced)” value was “−”.

B3: EcXA134: antisense clone insert to E. coli sspA (nucleic acid, listed as Escherichia coli)
antisense: TGTTCGATCTCGAAACTTACACCTTTCTCAGCCAGCACAATGCGGACCTGATGGCTATAGATGTCAGTAGGACCGGAAAACAGCGTCATTACCCGAACGTTTGTTGGC
For the molecule B3, the “effect of antisense expression on E. coli growth/proliferation” value in data set [3] was “reduction in cell growth”.
